Assay results reported in publication PMC6841977, “Ruxolitinib binding to human serum albumin: bioinformatics, biochemical and functional characterization in JAK2V617F^+ cell models” (Scientific Reports, 2019).
Each block holds one compound with its values, some of them ahead of it.

Experiments:
Assay type in all cases: binding
[1] = target: T1, human serum albumin (HSA) (Homo sapiens, UniProt P02768); test: competitive displacement of heme-Fe(III) (spectrophotometry) and dansyl-arginine (fluorescence), pH […] °C
T1 construct: gene ALB; fatty acid-free human serum albumin

[2] = target: T1, human serum albumin (HSA); test: spectrofluorimetric titration (ex […] nm, em […] nm), pH […] °C
[3] = target: T1, human serum albumin (HSA); test: spectrophotometric titration ([…]-460 nm), pH […] °C
[4] = target: T1, human serum albumin (HSA); test: spectrofluorimetric titration (ex […] nm, em […] nm), pH […] °C; remark: listed apart in the source

T1 sequence (P02768 25-609): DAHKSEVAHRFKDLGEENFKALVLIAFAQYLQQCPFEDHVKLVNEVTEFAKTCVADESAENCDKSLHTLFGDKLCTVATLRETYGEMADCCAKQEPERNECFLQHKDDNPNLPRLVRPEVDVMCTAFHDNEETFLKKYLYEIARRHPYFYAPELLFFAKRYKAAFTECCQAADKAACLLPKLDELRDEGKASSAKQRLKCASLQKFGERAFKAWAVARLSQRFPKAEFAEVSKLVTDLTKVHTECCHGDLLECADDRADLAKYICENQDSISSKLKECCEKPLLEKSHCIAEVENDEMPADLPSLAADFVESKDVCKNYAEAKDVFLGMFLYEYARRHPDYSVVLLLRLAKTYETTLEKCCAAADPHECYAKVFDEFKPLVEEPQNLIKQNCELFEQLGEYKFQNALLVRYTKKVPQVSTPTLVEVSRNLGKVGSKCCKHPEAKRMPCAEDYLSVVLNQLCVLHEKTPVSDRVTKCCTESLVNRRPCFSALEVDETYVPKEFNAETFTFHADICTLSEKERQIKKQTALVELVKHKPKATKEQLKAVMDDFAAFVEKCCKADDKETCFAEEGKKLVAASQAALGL

Kd [1]: 3.1 ± 0.4 µM
Structure (SMILES): N#CC[C@H](C1CCCC1)n1cc(-c2ncnc3[nH]ccc23)cn1 [ruxolitinib]

Structure (SMILES): CN(C)c1cccc2c(S(=O)(=O)N(C)CC(=O)O)cccc12 [dansyl-sarcosine]
Kd [2]: 5.1 ± 0.5 µM

Structure (SMILES): C=CC1=C(C)C2=Cc3c(C=C)c(C)c4[n]3[Fe+][n]3c(c(C)c(CCC(=O)O)c3=CC3=NC(=C4)C(C)=C3CCC(=O)O)=CC1=N2 [heme-Fe(III)]
Kd [3]: 0.076 ± 0.008 µM

Kd [4]: 27 ± 3 µM
Structure (SMILES): CN(C)c1cccc2c(S(=O)(=O)N[C@@H](CCCNC(=N)N)C(=O)O)cccc12 [dansyl-arginine]
